Results from US5635356A, “Anti-oncoimmunin-M antibodies and uses thereof” (The United States of America as represented by the …, priority 1994, dated 1997).

Tested on: Oncoimmunin-M treated HL-60 cells
Test: Chemotaxis in multiwell microchemotaxis chamber
Type: cell-based, human
Settings: HL-60 cells exposed to Oncoimmunin-M (2 nM) for two days; f-Met-Leu-Phe 10^-10 to 10^-6 M; 3 hr, 37° C.; FIG. 22C
Method: To assess whether the Oncoimmunin-M induced alterations in integrin expression are associated with the induction of a biologic activity which could serve a role in antitumor or antimicrobial function, HL-60 cells that had been exposed to Oncoimmunin-M (2 nM) for two days were assayed for chemotactic ability. Specifically, the treated cells were placed in a multiwell microchemotaxis chamber and assayed for their ability to migrate in response to a gradient of the chemoattractant recombinant human C5a (rHuC5a), recombinant interleukin-8, and the peptide f-Met-Leu-Phe.
Cells were suspended in the serum-free medium (SFM) at a concentration of 5×10^5 cells/ml. Assays in which the total number of cells migrating through the polyvinylpyrrolidone-free polycarbonate membranes (5 μm pores; Nucleopore Corp., Pleasanton, Calif.) were performed for 3 hr in a 37° C. incubator containing 5% CO2. After incubation, nonmigrated cells were wiped off the filters which were then fixed in methanol and stained with Diff-Quik (Dade Diagnostics, Inc., Aguada, Puerto Rico). Migrated cells were counted with an Optomax System 40-10 Image Analyzer (Optomax, Inc., Hollis, N.H., U.S.A.). Random migration was determined by quantifying cell migration to serum-free medium alone.

Q: `CSCC[C@H](NC=O)C(=O)N[C@@H](CC(C)C)C(=O)N[C@@H](Cc1ccccc1)C(=O)O` [f-Met-Leu-Phe] was tested. Which “migratory (chemotactic) response to chemoattractant gradient” value did it give?
A: Its value is “no significant response”.
